Results as given in patent publication US20110183942A1, “Methods and Compositions for Treating Alzheimer's Disease” (UNIVERSITY OF MEDICINE AND DENTISTRY OF NEW JERSEY, priority 2008, published 2011).

How the values were obtained:
[1] = tested on: hippocampal Schaffer collateral-CA1 synapses; assay: Field recording of fEPSP (mGluR-LTD) in acute hippocampal slices; type: cell-based, mouse; settings: for DHPG-LTD (fEPSP slope): t=75 min
Procedure: For recording, slices were placed in a submersion recording chamber and perfused with 30° C. ACSF at a rate of 2 ml/min.
fEPSPs were recorded with extracellular recording electrodes (1.0 MΩ) filled with ACSF and placed in the stratum radiatum of area CA1. Synaptic responses were evoked by a 200-μsec current pulse to Schaffer collateral axons with a concentric bipolar tungsten stimulating electrode. Stable baseline responses were collected every 30 sec by using a stimulation intensity (10-30 μA) yielding 50-60% of the maximal fEPSP slope response.
mGluR-LTD was induced by a mGluR1/5 agonist, (R,S)-3,5-DHPG (Tocris), or by electrical stimulations. […] NMDAR dependent-LTD was induced by using 900 single pulses delivered at 1 Hz.

[2] = tested on: global protein synthesis in cultured neurons; assay: Metabolic labeling, incorporation of 35S methionine and cysteine into TCA precipitant; type: cell-based
Procedure: To measure the incorporation of ^35S methionine and cysteine into new peptide, 30 μl protein labeling mix (Perkin Elmer) was added into 1.5 ml of regular culture medium (final 220 μCi/ml) for the time indicated in the figures. After washout once with ice-cold PBS, cells were lysed with 700 μl of RIPA buffer. After quantification of total amount of protein, equal amount of lysate (˜200 μl) was precipitated with 10% TCA.

eEF2K-mGluR5 interaction = target: T1, eEF2K-mGluR5 interaction (Mus musculus, UniProt Q3UVX5); assay: Co-immunoprecipitation of mGluR5 with eEF2K in synaptoneurosomes; settings: WT forebrain synaptoneurosomes, DHPG 20 min
T1 construct: confirmed that native mGluR5 associated with eEF2K; from tissue; host or cells: mouse forebrain synaptoneurosomes
T1 sequence (Q3UVX5 21-1203 limits assumed): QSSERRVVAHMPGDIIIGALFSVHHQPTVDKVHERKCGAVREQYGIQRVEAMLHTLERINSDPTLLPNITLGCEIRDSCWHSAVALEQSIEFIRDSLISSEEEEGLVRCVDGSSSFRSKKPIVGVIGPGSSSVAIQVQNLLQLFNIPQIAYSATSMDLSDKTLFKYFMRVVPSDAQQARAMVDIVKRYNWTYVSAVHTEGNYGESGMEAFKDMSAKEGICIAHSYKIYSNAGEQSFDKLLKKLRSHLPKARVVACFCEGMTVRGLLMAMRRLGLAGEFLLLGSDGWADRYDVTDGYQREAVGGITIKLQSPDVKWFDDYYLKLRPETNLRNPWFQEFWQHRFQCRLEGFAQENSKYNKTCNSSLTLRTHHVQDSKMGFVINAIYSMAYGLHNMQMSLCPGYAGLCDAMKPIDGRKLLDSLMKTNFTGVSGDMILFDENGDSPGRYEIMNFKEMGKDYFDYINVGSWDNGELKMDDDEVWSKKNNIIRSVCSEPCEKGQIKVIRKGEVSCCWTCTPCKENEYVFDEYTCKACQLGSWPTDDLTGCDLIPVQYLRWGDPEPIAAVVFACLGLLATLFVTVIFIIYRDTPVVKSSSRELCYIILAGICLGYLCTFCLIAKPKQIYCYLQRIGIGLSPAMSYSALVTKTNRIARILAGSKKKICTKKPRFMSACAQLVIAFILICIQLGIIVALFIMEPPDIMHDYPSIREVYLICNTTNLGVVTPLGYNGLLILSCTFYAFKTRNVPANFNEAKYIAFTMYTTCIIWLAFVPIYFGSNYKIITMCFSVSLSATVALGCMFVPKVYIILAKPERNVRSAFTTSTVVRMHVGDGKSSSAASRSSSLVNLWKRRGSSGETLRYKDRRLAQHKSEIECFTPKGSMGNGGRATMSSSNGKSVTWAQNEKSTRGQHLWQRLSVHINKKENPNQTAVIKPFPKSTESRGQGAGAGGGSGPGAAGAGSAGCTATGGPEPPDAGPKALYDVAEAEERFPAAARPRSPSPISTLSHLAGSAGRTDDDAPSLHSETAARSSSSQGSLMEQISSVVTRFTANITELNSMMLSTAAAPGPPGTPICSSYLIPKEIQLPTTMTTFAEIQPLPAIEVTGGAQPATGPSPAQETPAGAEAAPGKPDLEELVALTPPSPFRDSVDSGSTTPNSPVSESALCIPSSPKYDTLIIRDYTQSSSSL

co-IP of mGluR5 with eEF2K (eEF2K-mGluR5 interaction): decreased the co-IP of mGluR5
Structure (SMILES): NC(C(=O)O)c1cc(O)cc(O)c1 (racemic) [DHPG, (R,S)-3,5-DHPG]
fEPSP slope after DHPG ([1]; Arc KO slices, DHPG 50 μM 5 min, t=70 min): 92.1±3.7 % of baseline | fEPSP slope after DHPG ([1]; Arc KO slices, DHPG 100 μM 5 min, t=90 min): 88.5±7.4 % of baseline | DHPG-LTD (fEPSP slope) ([1]; Arc/Fmr1 DKO slices, DHPG 50 μM 5 min): 85.9±4.1 % of baseline | DHPG-LTD (fEPSP slope) ([1]; FVB WT slices, DHPG 50 μM 5 min): 73.0±6.6 % of baseline | DHPG-LTD (fEPSP slope) ([1]; Fmr1 KO slices, DHPG 50 μM 5 min): 68.2±2.6 % of baseline | fEPSP slope after DHPG ([1]; WT slices (littermates of Arc KO), DHPG 50 μM 5 min, t=70 min): 72.8±2.0 % of baseline | fEPSP slope after DHPG ([1]; WT slices (littermates of eEF2K KO), DHPG 50 μM 5 min, t=90 min): 64.7±5.2 % of baseline | fEPSP slope after DHPG ([1]; WT slices, DHPG 100 μM 5 min, t=90 min): 64.4±2.6 % of baseline | fEPSP slope after DHPG ([1]; eEF2K KO slices, DHPG 50 μM 5 min, t=90 min): 108.7±3.6 % of baseline | global protein synthesis compared to untreated control ([2]; pretreatment of DHPG (30 min before harvest for 5 min)): 1.080±0.036 | global protein synthesis compared to untreated control ([2]; simultaneous treatment of DHPG for 5 min): 0.926±0.017
